Measured values: article PMC10886515, “Discovery of A Novel Series of Quinazoline–Thiazole Hybrids as Potential Antiproliferative and Anti-Angiogenic Agents” (Biomolecules, 2024)
Read-outs that look alike come from different tables or passages of the source.

Assays:
HepG2 cells = assay: Alamar Blue cytotoxicity assay on HepG2 cells; assay type: cell-based, human; settings: for IC50: Homo sapiens, read-out: IC50 HepG2; for Selectivity Index SIb: SIb = IC50 BJ/IC50 HepG2
From the text: (§1) A human endothelial hybrid cell line (EA.hy926) (passage number 10–15), human hepatocellular carcinoma (HepG2) cells (passage number 10–15), and normal foreskin fibroblasts (BJ) (passage number 5–10) were used in the present study. All cell lines were purchased from ATCC (Manassas, United States of America). EA.hy926 cells were maintained in DMEM with high glucose supplemented with 1% sodium pyruvate, while the BJ cells were maintained in DMEM with low glucose concentration. HepG2 cells were cultured in MEM. All media were supplemented with 10% fetal bovine serum (FBS) and 1% penicillin/streptomycin. All cell lines were cultured at 37 °C in an incubator with 5% CO2 supplementation and cellular media were refreshed every other day. Once the cells reached a confluency of 80–90%, they were either subcultured or used in experiments.
(§2) The synthesized compounds’ cytotoxicity was evaluated using the Alamar Blue (AB) assay as previously described. The metabolically active cell-dependent conversion of non-fluorescent resazurin to the highly fluorescent resorufin compound is quantified spectrophotometrically at λexcitation = 530/25; λemission = 590/35, using a Synergy 2 Multi-Mode microplate reader. Briefly, a total of 5 x 10^3 EA.hy926 and BJ cells and 1 x 10^4 HepG2 cells were seeded in 100 µL in 96 well plates. The cells were left to attach overnight. […] At 48 h post-stimulation, the media were removed, and the AB assay was performed. The reported range of concentrations for each compound was obtained by employing the up-and-down method.
(§3) The experiments were conducted in three biological replicates, each one including 6 technical replicates. Cells exposed to culture media with 0.2% DMSO served as negative control (NC) and were used for data normalization (100%). The 50% Inhibitory Concentration (IC50) values were determined based on the dose–response curves obtained by fitting the experimental data with a 4-parameter logistic curve in SigmaPlot 11 software.

BJ cells = assay: Alamar Blue cytotoxicity assay on BJ cells; assay type: cell-based; settings: Homo sapiens, 48 h exposure, normal foreskin fibroblasts
From the text: as §1, §2, §3

[1] = system: chorioallantoic membrane (CAM) of chicken eggs; assay: Chorioallantoic egg membrane (CAM) assay; assay type: in vivo; settings: for peak number of vascular branching points from day 3, fold lower than control sample: day 3 vs control (0.2% DMSO); for reduction in vascular branching on day 4 compared to day 3: day 4 vs day 3; for reduction in the number of vascular branching points on day 5 compared to day 5 of the control sample: day 5 vs control (0.2% DMSO); for reduction in vascular branching on day 5 compared to day 3: day 5 vs day 3
Experimental: To assess the anti-angiogenic effects, a biological model represented by the chorioallantoic membrane (CAM) of chicken eggs was employed. […] The experimental procedure involved the following steps: (I) initial cleaning with 70% alcohol solution and incubation of the eggs at a constant humidity (45%) and temperature (37.5 °C) on the first day; (II) on the third day of embryonic development (EDD3), a small hole at the egg tip was created and approximately 5–7 mL of albumen were extracted to facilitate detachment of the chorioallantoic membrane from the inner shell; and (III) on EDD4, a window was created at the egg’s top to visualize the vascular plexus, covering it with adhesive tape, and returning the egg to the incubator until the experiment’s commencement.
The assessment of anti-angiogenic impact began on the sixth day of embryonic development and extended over five days. To achieve this, a silicon ring was applied to the CAM, and 10 μL of the tested compounds was administered daily within the ring. The evaluation of angiogenesis involved daily photographic documentation of the vascular plexus using a Discovery v.8 stereomicroscope, a Zeiss Axio CAM 105 color camera, and ZEN core 3.8 software. […] The quantitative evaluation of vessel numbers branching points and total vessel area was performed using the IKOSA Prism Application CAM assay (v3.1.0).

EA.hy926 cells [2] = assay: Alamar Blue cytotoxicity assay on EA.hy926 cells; assay type: cell-based, human; settings: for IC50: Homo sapiens, read-out: IC50 EA.hy926; for Selectivity Index SIa: SIa = IC50 BJ/IC50 EA.hy296
From the text: as §1, §2, §3

EA.hy926 cells [3] = assay: Wound healing (scratch) assay; assay type: cell-based, human; settings: 12 h
Experimental: EA.hy926 cells were seeded in 12-well plates and incubated for 24 h until confluency was reached. The medium was removed and a scratch in the cell monolayer was manually added with a sterile pipette tip. Subsequently, the cells were gently washed two times with DPBS to remove the detached cells. […] Images were captured at the time of exposure (T0) and 12 h post-exposure (T12). The rate of cell migration was determined by calculating the wound healing percentage (%) according to the formula (AT0 – AT12)/ AT0*100 previously reported. The scratch area at the initial time of exposure (AT0) and after 12 h (AT12), expressed as square pixels (Px^2), were determined using the IKOSA Prisma Application Wound Healing (Scratch) assay (v2.2.0).

[4] = Solubility observed in the cellular media; assay type: physicochemical; settings: plasma or biological fluid, read-out: concentrations at which limited solubility in the cellular media was observed
[5] = HepG2, 48 h exposure, Alamar Blue
[6] = EA.hy 926, 48 h exposure, Alamar Blue

Compound	melting point	IC50 (HepG2 cells; [5])	Selectivity Index SIb (HepG2 cells)	IC50 (BJ cells)	IC50 (EA.hy926 cells [2]; [6])	Selectivity Index SIa (EA.hy926 cells [2])	also measured
COc1cc2ncnc(Oc3ccc(/C=N/Nc4nc(-c5ccc(F)cc5)cs4)cc3)c2cc1OC [SA02, (E)-2-(2-(4-((6,7-dimethoxyquinazolin-4-yl)oxy)benzylidene)hydrazineyl)-4-(4-fluorophenyl)-thiazole]	242 to 243 °C	2.34 µM	1.00	2.35 µM	0.93 µM	2.53	–
CNC(=O)c1cc(Oc2ccc(NC(=O)Nc3ccc(Cl)c(C(F)(F)F)c3)cc2)ccn1 [Sorafenib, sorafenib, reference compound]	–	–	–	13.2 µM	–	–	IC50 (HepG2 cells; HepG2, 48 h): 6.28 µM; IC50 (EA.hy926 cells [2]; EA.hy 926, 48 h): 6.62 µM; Wound heal (%) (EA.hy926 cells [3]; 1.25 μM): 70.54%; Wound heal (%) (EA.hy926 cells [3]; 2.5 μM): 37.99%; Wound heal (%) (EA.hy926 cells [3]; 5 μM): 18.88%
COc1ccc(-c2csc(N/N=C/c3ccc(Oc4ncnc5cc(OC)c(OC)cc45)cc3)n2)cc1 [SA01, (E)-2-(2-(4-((6,7-dimethoxyquinazolin-4-yl)oxy)-benzylidene)hydrazineyl)-4-(4-methoxyphenyl)-thiazole]	230 °C	31.2 µM	1.16	36.2 µM	3.64 µM	9.96	–
COc1cc2ncnc(Oc3ccc(/C=N/Nc4nc(C)cs4)cc3)c2cc1OC [SA06, (E)-2-(2-(4-((6,7-dimethoxyquinazolin-4-yl)-oxy)-benzylidene-)hydrazineyl)-4-methyl-thiazole]	–	> 100 µM	–	> 100 µM	> 10 µM	–	solubility [4]: > 5 µM
COc1cc2ncnc(Oc3ccc(/C=N/Nc4nc(-c5ccc(Cl)cc5)cs4)cc3)c2cc1OC [SA03, (E)-2-(2-(4-((6,7-dimethoxyquinazolin-4-yl)oxy)benzylidene)hydrazineyl)-4-(4-chlorophenyl)-thiazole]	231 to 232 °C	4.24 µM	0.67	2.84 µM	0.79 µM	3.59	fold higher activity compared to sorafenib (EA.hy926 cells [2]; EA.hy926 cells): 8.3 fold
COc1cc2ncnc(Oc3ccc(/C=N/Nc4nc(-c5ccc(C#N)cc5)cs4)cc3)c2cc1OC [SA05, (E)-2-(2-(4-((6,7-dimethoxyquinazolin-4-yl)oxy)benzylidene)hydrazineyl)-4-(4-benzonitrile)thiazole]	–	1.83 µM	1.46	2.67 µM	1.4 µM	1.91	fold higher activity compared to sorafenib (HepG2 cells; HepG2 cells): 3.5 fold; peak number of vascular branching points from day 3, fold lower than control sample [1]: 1.18 fold; reduction in vascular branching on day 4 compared to day 3 [1]: 16%; reduction in the number of vascular branching points on day 5 compared to day 5 of the control sample [1]: 42%; reduction in vascular branching on day 5 compared to day 3 [1]: 39%; Wound heal (%) (EA.hy926 cells [3]; 0.75 μM): 66.41%; Wound heal (%) (EA.hy926 cells [3]; 1 μM): 62.45%; Wound heal (%) (EA.hy926 cells [3]; 1.25 μM): 61.52%; Wound heal (%) (EA.hy926 cells [3]; 1.5 μM): 54.42%

The next lines start with results.

melting point	Compound	IC50 (HepG2 cells; [5])	Selectivity Index SIb (HepG2 cells)	IC50 (BJ cells)	IC50 (EA.hy926 cells [2]; [6])	Selectivity Index SIa (EA.hy926 cells [2])	also measured
237 to 238 °C	COc1cc2ncnc(Oc3ccc(/C=N/Nc4nc(-c5ccc(C(F)(F)F)cc5)cs4)cc3)c2cc1OC [SA04, (E)-2-(2-(4-((6,7-dimethoxyquinazolin-4-yl)oxy)benzylidene)hydrazineyl)-4-(4-(trifluoromethyl)-phenyl)thiazole]	2.72 µM	2.50	6.79 µM	0.98 µM	6.93	peak number of vascular branching points from day 3, fold lower than control sample [1]: 1.3 fold; reduction in vascular branching on day 4 compared to day 3 [1]: 47%; reduction in the number of vascular branching points on day 5 compared to day 5 of the control sample [1]: 67%; reduction in vascular branching on day 5 compared to day 3 [1]: 60%; Wound heal (%) (EA.hy926 cells [3]; 0.25 μM): 63.45%; Wound heal (%) (EA.hy926 cells [3]; 0.5 μM): 46.99%; Wound heal (%) (EA.hy926 cells [3]; 0.75 μM): 46.83%; Wound heal (%) (EA.hy926 cells [3]; 1 μM): 43.87%
246 to 247 °C	COc1cc2ncnc(Oc3ccc(/C=N/Nc4nc(-c5ccc(O)c(C(N)=O)c5)cs4)cc3)c2cc1OC [SA07, (E)-5-(2-(2-(4-((6,7-dimethoxyquinazolin-4-yl)oxy)benzylidene)hydrazineyl)thiazol-4-yl)-2-hydroxy-benzamide]	27.3 µM	0.87	23.8 µM	5.85 µM	4.06	–
